Where a name gives a salt, the structure may show the parent alone.
Key:
[1] = system: Ovariectomised adult female Sprague Dawley rats; assay: Female rat sexual proceptivity test; type: in vivo; details: for difference in the percentage of time spent investigating the male stimuli minus female stimuli / MED, difference in percentage of time spent investigating male minus female stimuli: 1 h before test
Method: Ovariectomised adult female Sprague Dawley rats (180-200 g) were housed in groups of 6 in a reversed lighting system of 12 h light:dark (lights off 7.00-19.00 h). Two weeks after ovariectomy they were used for sexual activity tests. Animals were Adapted to the apparatus (in the absence of stimuli animals) for 10 min on 2 Consecutive days prior to testing. The experiments started at least 5 h into the dark period. Tests were carried out in a circular arena of 90 cm diameter, surrounded by a 30 cm high wall. Two small cages with wire-mesh front (15×15 cm) are fixed into the wall such that the front of the cage is “flush” with the wall and the 2 cages are opposite each other. They contain two stimuli animals: an intact sexually experienced male and a receptive female (ovariectomised, primed with 5 μg oestradiol benzoate dissolved in corn oil and injected subcutaneously 48 h before the test and with 0.5 mg of progesterone 4 h before the test). Sexually naïve test and control animals were used. Forty eight hours before the tests, both the test and control animals were primed with 5 μg oestradiol benzoate. Test animals were treated with the above compound (1)(30-100 mg/kg) which was dissolved in PEG 200 vehicle and administered orally in a 1 ml/kg volume 1 h before each test. For animals used as positive controls, progesterone (0.5 mg/0.1 ml) was dissolved in corn oil and administered subcutaneously (s.c.), 4 h before the test. Test and control animals were introduced one at a time for 10-minute periods into the arena. During the 10-min test, the time that the test or positive control animal spent investigating each stimulus animal was noted. The arena was thoroughly cleaned between animals. The position of the male/female stimuli boxes was randomised between animals, in order to avoid place preference. The difference in the percentage of time spent investigating male minus female was calculated, out of the total time spent investigating stimuli animals.
Example 21 was repeated except that compound (1) (3-30 mg/kg) was dissolved in 0.5% methyl cellulose and was administered p.o. in a dosing volume of 3 ml/kg 1 h before tests. Progesterone (0.5 mg/0.1 ml) was dissolved in corn oil and administered s.c., 4 h before test, as a positive control.

[2] = system: Ovariectomised adult female Sprague Dawley rats; assay: Female rat sexual receptivity test (lordosis quotient); type: in vivo
Method: Ovariectomised adult female Sprague Dawley rats (180-200 g) were housed in groups of 6 in a reversed lighting system of 12 h light:dark (lights off 7.00-19.00 h). Two weeks after ovariectomy they were used for sexual activity tests. The experiments started at least 5 h into the dark period. Compound (1) was dissolved in PEG 200 vehicle and administered orally. Quinelorane dihydrochloride (LY 163,502, 6.25 μg/kg) was dissolved in water and administered s.c., as a positive control. Both compounds were administered in a 1-ml/kg volume. Forty eight hours before tests, the animals were primed with 5 μg oestradiol benzoate dissolved in corn oil and injected s.c. The females were placed with a series of vigorous male rats and subjected to 10 mounts. The lordotic response of the animal was recorded and expressed as a percentage of the mounts (i.e. lordosis quotient, LQ). […] Animals showing higher LQ were not included in the study. Each rat was tested prior to administration of the compound (1) and then tested similarly at 1 h and at 90 min post-injection of compound (1) or quinelorane respectively.

SMILES	melting point [°C]	further results
C[C@@](Cc1c[nH]c2ccccc12)(Nc1nc(-c2ccc([N+](=O)[O-])cc2)co1)C(=O)NCC(=O)c1ccccc1 [Example 3, (S)-3-(1H-Indol-3-yl)-2-methyl-2-[4-(4-nitro-phenyl)-oxazol-2-ylamino]-N-(2-oxo-2-phenyl-ethyl)-propionamide]	80 to 90	–
C[C@@](Cc1c[nH]c2ccccc12)(Nc1nc2ccccc2o1)C(=O)NCC1(c2ccccn2)CCCCC1 [Example 9, (S)-2-(Benzooxazol-2-ylamino)-3-(1H-indol-3-yl)-2-m thyl-N-(1-pyridin-2-yl-cyclohxylmethyl)-propionamide]	198 to 200	–
C[C@@](Cc1c[nH]c2ccccc12)(Nc1ccncc1)C(=O)NCC1(c2ccccn2)CCCCC1 [Example 10, (S)-3-(1H-Indol-3-yl)-2-methyl-2-(pyridin-4-ylamino)-N-(1-pyridin-2-yl-cyclohexylmethyl)-propionamide]	180 to 195	–
C[C@@](Cc1c[nH]c2ccccc12)(Nc1cncc2ccccc12)C(=O)NCC1(c2ccccn2)CCCCC1 [Example 11, (S)-3-(1H-Indol-3-yl)-2-(isoquinolin-4-ylamino)-2-methyl-N-(1-pyridin-2-yl-cyclohexylmethyl)-propionamide]	98 to 101	–
C[C@@](Cc1c[nH]c2ccccc12)(Nc1cncnc1)C(=O)NCC1(c2ccccn2)CCCCC1 [Example 12, (S)-3-(1H-Indol-3-yl)-2-methyl-N-(1-pyridin-2-yl-cyclohexylmethyl)-2-(pyrimidin-5-ylamino)-propionamide]	95 to 98	–
Cc1cccc(N[C@@](C)(Cc2c[nH]c3ccccc23)C(=O)NCC2(c3ccccn3)CCCCC2)c1 [Example 14, (S)-3-(1H-Indol-3-yl)-2-methyl-N-(1-pyridin-2-yl-cyclohexylmethyl)-2-m-tolylamino-propionamide]	70 to 75	–
C[C@@](Cc1c[nH]c2ccccc12)(NCc1ccc([N+](=O)[O-])cc1)C(=O)NCC1(c2ccccn2)CCCCC1 [Example 19, (S)-3-(1H-Indol-3-yl)-2-methyl-2-(4-nitro-benzylamino)-N-(1-pyridin-2-yl-cyclohexylmethyl)-propionamide]	58 to 60	–
CC(=O)[C@H]1CC[C@H]2[C@@H]3CCC4=CC(=O)CC[C@]4(C)[C@H]3CC[C@]12C [progesterone, reference compound]	–	effect on proceptivity (positive control) ([1]; 0.5 mg/0.1 ml in corn oil s.c., 4 h before test): maximal
CCCN1CCC[C@@H]2Cc3nc(N)ncc3C[C@H]21 [quinelorane, Quinelorane dihydrochloride, reference compound]	–	lordosis quotient (LQ) versus before administration ([2]; 6.25 μg/kg s.c. in water, 90 min after administration): significantly (P<0.01) increased

Continued, in another order:

melting point [°C]	SMILES	further results
100 to 105	COc1ccc(C2(CNC(=O)[C@](C)(Cc3c[nH]c4ccccc34)Nc3nc(-c4ccc([N+](=O)[O-])cc4)co3)CCCCC2)nc1 [Example 1, (S)-3-(1H-Indol-3-yl)-N-[1-(5-methoxy-pyridin-2-yl)-cyclohexylmethyl]-2-methyl-2-[4-(4-nitro-phenyl)-oxazol-2-ylamino]-propionamide]	difference in the percentage of time spent investigating the male stimuli minus female stimuli ([1]; 0.5% methyl cellulose, p.o., 3-30 mg/kg): increased; MED, difference in percentage of time spent investigating male minus female stimuli ([1]; 0.5% methyl cellulose, p.o.): 10 mg/kg; difference in the percentage of time spent investigating the male stimuli minus female stimuli ([1]; PEG 200 vehicle, oral, 30-100 mg/kg): increased; MED, difference in percentage of time spent investigating male minus female stimuli ([1]; PEG 200 vehicle, oral): 100 mg/kg; increase in potency in methyl cellulose compared to PEG 200 vehicle ([1]; oral, MED 10 vs 100 mg/kg): 10 fold; lordosis quotient (LQ) versus before administration ([2]; PEG 200, single oral administration, 10-100 mg/kg, 1 h after administration): increased
189 to 192	COCC1(CNC(=O)[C@](C)(Cc2c[nH]c3ccccc23)Nc2nc(-c3ccc([N+](=O)[O-])cc3)co2)CCCCC1 [Example 2, (S)-3-(1H-Indol-3-yl)-N-(1-methoxymethyl-cyclohexylmethyl)-2-methyl-2-[4-(4-nitro-phenyl)-oxazol-2-ylamino]-propionamide]	–
105 to 108	COc1ccc(C2(CNC(=O)[C@](C)(Cc3c[nH]c4ccccc34)Nc3nc(-c4ccc(C#N)cc4)co3)CCCCC2)nc1 [Example 5, (S)-2-[4-(4-Cyano-phenyl)-oxazol-2-ylamino]-3-(1H-indol-3-yl)-N-[1-(5-methoxy-pyridin-2-yl)-cyclohexylmethyl]-2-methyl-propionamide]	–
85 to 90	COc1ccc(C2(CNC(=O)[C@](C)(Cc3c[nH]c4ccccc34)Nc3nc(-c4ccccc4)co3)CCCCC2)nc1 [Example 6, (S)-3-(1H-Indol-3-yl)-N-[1-(5-methoxy-pyridin-2-yl)-cyclohexylmethyl]-2-methyl-2-(4-phenyl-oxazol-2-ylamino)-propionamide]	–
60 to 65	CCc1coc(N[C@@](C)(Cc2c[nH]c3ccccc23)C(=O)NCC2(c3ccc(OC)cn3)CCCCC2)n1 [Example 7, (S)-2-(4-Ethyl-oxazol-2-ylamino)-3-(1H-indol-3-yl)-N-[1-(5-methoxy-pyridin-2-yl)-cyclohexylmethyl]-2-methyl-propionamide]	–
110 to 114	COc1ccc(C2(CNC(=O)[C@](C)(Cc3c[nH]c4ccccc34)Nc3nc(-c4ccc([N+](=O)[O-])cc4)cs3)CCCCC2)nc1 [Example 8, (S)-3-(1H-Indol-3-yl)-N-[1-(5-methoxy-pyridin-2-yl)-cyclohexylmethyl]-2-methyl-2-[4-(4-nitro-phenyl)-thiazol-2-ylamino]-propionamide]	–

From patent US20040110768A1, “Bombesin receptor antagonists” (priority 2000, published 2004)
